This is an account of results in patent publication US20100256048A1, “POLYPEPTIDE COMPOUND” (Astellas Pharma Inc., priority 2007, published 2010).

For one test, the system named is A. fumigatus 20030. Kind of test: Mouse respiratory infection model. The conditions noted are these: male ICR mice given cyclophosphamide, compound intravenously, lives and deaths observed over 10 days. Type of test: in vivo, Aspergillus fumigatus. The method, then:
Effect to Mouse Respiratory Infection Model
4-week old male ICR mice were used so as to be eight mice in a group. 200 mg/kg of cyclophosphamide is intraperitoneally administered into mice at 4 days before infection and 1 day after infection. Conidium liquid (0.05 mL: approximately 2.2×10^6) of A. fumigatus 20030 suspended in physiological saline was inoculated from respiratory passages of mice to cause respiratory infection. The compound was administered intravenously for 2 hours to 4 days after the infection. The lives and deaths of the mice were observed over a 10 day period starting from the next day.

For test [1], the system named is C. albicans (Candida albicans). Nature of the test: MIC in human serum by microdilution, C. albicans. It is filed as cell-based. The conditions noted are these: human serum buffered with 20 mM HEPES pH 7.3; 37° C., 24 hours, 5% CO2; geometric mean of three clinical cell lines; growth completely inhibited. The method, then:
(§1) Measurement of Susceptibility to C. albicans (Candida albicans) and A. fumigatus (Aspergillus fumigatus) By the microdilution method where human serum buffered with 20 mM-HEPES buffer (pH 7.3) was used as a test medium, MIC (minimum inhibitory concentration) in human serum was determined. The inoculum suspension of 10^6 cells/mL was prepared by a hemocytometric procedure to obtain an inoculum size of approximately 5×10^3 to 2×10^4cells/mL. Microplates were incubated at 37° C. for 24 hours under 5% CO2 atmosphere. […] The values were shown as geometric mean of MIC with reference to three of clinical cell lines.
Background: Dilution methods test growth across graded concentrations, often in twofold steps.

Test [2] deals with A. fumigatus (Aspergillus fumigatus). Kind of test: MIC in human serum by microdilution, A. fumigatus. It is filed as cell-based. As to conditions: human serum buffered with 20 mM HEPES pH 7.3; 37° C., 24 hours, 5% CO2; geometric mean of three clinical cell lines; growth sufficiently inhibited versus growth control. The method, then:
as §1

On to `COc1cc(C[C@@H](O)[C@@H]2NC(=O)[C@@H]3C[C@@H](O)CN3C(=O)[C@H]([C@@H](C)O)NC(=O)[C@@H](NC[C@H]3CC[C@H](c4nnc(-c5ccc(N6CCC(OC)(C7CCCCC7)CC6)cc5)s4)CC3)C[C@@H](O)CNC(=O)[C@@H]3[C@@H](O)[C@@H](C)CN3C(=O)[C@H]([C@H](O)CCN)NC2=O)ccc1O` [Ex 1], for which, in the test on A. fumigatus 20030, the “Infection experiments ED50 A. fumigatus” value is given as under 0.3 mg/kg. Regarding `COc1cc(C[C@@H](O)[C@@H]2NC(=O)[C@@H]3C[C@@H](O)CN3C(=O)[C@H]([C@@H](C)O)NC(=O)[C@@H](NC[C@H]3CC[C@H](c4nnc(-c5ccc(N6CCC(OC)(C7CCCCC7)CC6)cc5)s4)CC3)C[C@@H](O)CNC(=O)[C@@H]3[C@@H](O)[C@@H](C)CN3C(=O)[C@H]([C@H](O)CCNC(CO)CO)NC2=O)ccc1O` [Ex 6], the “Infection experiments ED50 A. fumigatus” value with A. fumigatus 20030 is on record as 0.44 mg/kg.

Take `C[C@@H](O)[C@@H]1NC(=O)[C@@H](NCC2CCN(c3nnc(-c4ccc(-c5cnc(N6CCC(OC7CCCCC7)CC6)nc5)cc4)s3)CC2)C[C@@H](O)CNC(=O)[C@@H]2[C@@H](O)[C@@H](C)CN2C(=O)[C@H]([C@H](O)CC(=O)NCCN)NC(=O)[C@H]([C@H](O)Cc2ccc(O)c(OS(=O)(=O)O)c2)NC(=O)[C@@H]2C[C@@H](O)CN2C1=O` [Ex 30]: the “MIC (mean of three cell lines) C. albicans” value in test [1] came to 0.4 µg/mL. Further, the “MIC (mean of three cell lines) A. fumigatus” value in test [2] was 0.32 µg/mL. With `C[C@@H](O)[C@@H]1NC(=O)[C@@H](NC[C@H]2CC[C@H](c3nnc(-c4ccc(N5CCC(OC6CCCCC6)CC5)cc4)s3)CC2)C[C@@H](O)CNC(=O)[C@@H]2[C@@H](O)[C@@H](C)CN2C(=O)[C@H]([C@H](O)CCNC(CO)CO)NC(=O)[C@H]([C@H](O)Cc2ccc(O)c(OS(=O)(=O)O)c2)NC(=O)[C@@H]2C[C@@H](O)CN2C1=O` [Ex 33], in the test with A. fumigatus 20030, the “Infection experiments ED50 A. fumigatus” value is listed as 0.39 mg/kg.
